The supplement of paper PMC10307832

Experiments:
Test in all cases: relative viability (nuclei count vs DMSO), 5 days (fraction); higher = more cells survive
[1] = system: NCI-H650
Procedure, shortened: (§1)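 A single step with final 0.05% Triton X-100, 1% formaldehyde and 1 ug/ml Hoechst fixed the cells and stained nuclei 5 days after treatment. Lung cancer cell lines in 1536-well plates had been treated by pin tool the day after seeding with one drug alone or a fixed anchor-drug dose plus five library-drug doses (not always all listed) in √10 steps, and nuclei were counted on 4× images. Relative viability is the ratio of nuclei in treated wells to nuclei in vehicle wells, taken as the median of duplicate plates.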

[2] = system: 201T
Procedure, shortened: as §1

[3] = system: COR-L23
Procedure, shortened: as §1

[4] = system: NCI-H838
Procedure, shortened: as §1

[5] = system: NCI-H1666
Procedure, shortened: as §1

[6] = system: NCI-H441
Procedure, shortened: as §1

[7] = system: HARA
Procedure, shortened: as §1

[8] = system: A-427
Procedure, shortened: as §1

[9] = system: EKVX
Procedure, shortened: as §1

[10] = system: NCI-H1975
Procedure, shortened: as §1

[11] = system: HCC-827
Procedure, shortened: as §1

[12] = system: NCI-H596
Procedure, shortened: as §1

[13] = system: HCC-15
Procedure, shortened: as §1

[14] = system: HCC-44
Procedure, shortened: as §1

[15] = system: NCI-H23
Procedure, shortened: as §1

[16] = system: NCI-H1792
Procedure, shortened: as §1

[17] = system: COR-L 105
Procedure, shortened: as §1

[18] = system: NCI-H1437
Procedure, shortened: as §1

[19] = system: BEN
Procedure, shortened: as §1

`Oc1nc(-c2ccc(C(F)(F)F)cc2)nc2c1CSCC2` [XAV939] + CC(C)C[C@H](NC(=O)[C@H](Cc1ccccc1)NC(=O)c1cnccn1)B(O)O [Bortezomib] (partner 0.002 µM) was tested, and the relative viability ([1]; first compound 0.08 µM) was 0.838, the relative viability ([1]; first compound 0.253 µM) was 0.882 and the relative viability ([1]; first compound 0.8 µM) was 0.854. It also gave a relative viability ([1]; first compound 2.53 µM) of 0.703, a relative viability ([2]; first compound 0.08 µM) of 1.12 and a relative viability ([2]; first compound 0.253 µM) of 0.981. It also gave a relative viability ([2]; first compound 0.8 µM) of 1.08, a relative viability ([2]; first compound 2.53 µM) of 0.979 and a relative viability ([3]; first compound 0.08 µM) of 1.03. For the same compound, the relative viability ([3]; first compound 0.253 µM) was 0.994, the relative viability ([3]; first compound 0.8 µM) was 1.05 and the relative viability ([3]; first compound 2.53 µM) was 0.855. It also gave a relative viability ([4]; first compound 0.08 µM) of 0.852, a relative viability ([4]; first compound 0.253 µM) of 0.683 and a relative viability ([4]; first compound 0.8 µM) of 0.893. The relative viability ([4]; first compound 2.53 µM) was 0.527, the relative viability ([5]; first compound 0.08 µM) was 0.813 and the relative viability ([5]; first compound 0.253 µM) was 0.611. It also gave a relative viability ([5]; first compound 0.8 µM) of 0.422, a relative viability ([5]; first compound 2.53 µM) of 0.5 and a relative viability ([6]; first compound 0.08 µM) of 0.45. It also gave a relative viability ([6]; first compound 0.253 µM) of 0.401, a relative viability ([6]; first compound 0.8 µM) of 0.572 and a relative viability ([6]; first compound 2.53 µM) of 0.681. For the same compound, the relative viability ([7]; first compound 0.08 µM) was 1.35, the relative viability ([7]; first compound 0.253 µM) was 1 and the relative viability ([7]; first compound 0.8 µM) was 1.12. For the same compound, the relative viability ([7]; first compound 2.53 µM) was 1, the relative viability ([8]; first compound 0.08 µM) was 1.06 and the relative viability ([8]; first compound 0.253 µM) was 0.977. For the same compound, the relative viability ([8]; first compound 0.8 µM) was 0.883, the relative viability ([8]; first compound 2.53 µM) was 0.769 and the relative viability ([9]; first compound 0.08 µM) was 1.12. For the same compound, the relative viability ([9]; first compound 0.253 µM) was 0.882, the relative viability ([9]; first compound 0.8 µM) was 0.773 and the relative viability ([9]; first compound 2.53 µM) was 0.573. For the same compound, the relative viability ([10]; first compound 0.08 µM) was 0.305, the relative viability ([10]; first compound 0.253 µM) was 0.352 and the relative viability ([10]; first compound 0.8 µM) was 0.346. It also gave a relative viability ([10]; first compound 2.53 µM) of 0.349, a relative viability ([11]; first compound 0.08 µM) of 1.03 and a relative viability ([11]; first compound 0.253 µM) of 0.868. The relative viability ([11]; first compound 0.8 µM) was 1.07, the relative viability ([11]; first compound 2.53 µM) was 1.09 and the relative viability ([12]; first compound 0.08 µM) was 1.11. The relative viability ([12]; first compound 0.253 µM) was 1.1, the relative viability ([12]; first compound 0.8 µM) was 1.09 and the relative viability ([12]; first compound 2.53 µM) was 1.3. It also gave a relative viability ([13]; first compound 0.08 µM) of 1.2, a relative viability ([13]; first compound 0.253 µM) of 0.938 and a relative viability ([13]; first compound 0.8 µM) of 1.05. It also gave a relative viability ([13]; first compound 2.53 µM) of 1.06, a relative viability ([14]; first compound 0.08 µM) of 0.909 and a relative viability ([14]; first compound 0.253 µM) of 0.809. The relative viability ([14]; first compound 0.8 µM) was 0.854, the relative viability ([14]; first compound 2.53 µM) was 0.824 and the relative viability ([15]; first compound 0.08 µM) was 0.992. The relative viability ([15]; first compound 0.253 µM) was 1.12, the relative viability ([15]; first compound 0.8 µM) was 0.989 and the relative viability ([15]; first compound 2.53 µM) was 0.886. The relative viability ([16]; first compound 0.08 µM) was 0.945, the relative viability ([16]; first compound 0.253 µM) was 0.943 and the relative viability ([16]; first compound 0.8 µM) was 0.973. For the same compound, the relative viability ([16]; first compound 2.53 µM) was 0.869, the relative viability ([17]; first compound 0.08 µM) was 0.853 and the relative viability ([17]; first compound 0.253 µM) was 0.755. The relative viability ([17]; first compound 0.8 µM) was 0.618, the relative viability ([17]; first compound 2.53 µM) was 0.567 and the relative viability ([18]; first compound 0.08 µM) was 0.641. The relative viability ([18]; first compound 0.253 µM) was 0.548, the relative viability ([18]; first compound 0.8 µM) was 0.512 and the relative viability ([18]; first compound 2.53 µM) was 0.376. It also gave a relative viability ([19]; first compound 0.08 µM) of 0.709, a relative viability ([19]; first compound 0.253 µM) of 0.733 and a relative viability ([19]; first compound 0.8 µM) of 0.559.
